Data published in the NIST ThermoML archive (doi:10.1016/j.jct.2013.09.024).

Assay: xn = mol fraction of the nth substance listed
Details: Liquid, Vibrating tube method

CC1(C)C(=O)[C@]2(C)CC[C@H]1C2 [(-)-fenchone] + CCO
mass density [kg/m3]
Details	283.15 K	298.15 K	313.15 K	328.15 K
101 kPa, x1 = 0.0481	817.48	804.6	791.46	777.95
101 kPa, x1 = 0.0985	834.96	822.02	808.84	795.29
101 kPa, x1 = 0.2002	862.89	849.9	836.65	823.07
101 kPa, x1 = 0.3002	883.74	870.72	857.52	844.02
101 kPa, x1 = 0.4031	900.59	887.59	874.42	861.01
101 kPa, x1 = 0.5012	913.56	900.59	887.46	874.13
101 kPa, x1 = 0.5976	924.09	911.15	898.09	884.87
101 kPa, x1 = 0.697	933.16	920.28	907.3	894.19
101 kPa, x1 = 0.7897	940.31	927.48	914.58	901.6
101 kPa, x1 = 0.899	947.57	934.83	922.06	909.23
101 kPa, x1 = 0.9486	950.46	937.77	925.06	912.33
101 kPa, x1 = 1	953.27	940.67	928.04	915.39
20000 kPa, x1 = 0.051	833.5	822	810.1	798
20000 kPa, x1 = 0.0992	849.7	838	826.1	813.9
20000 kPa, x1 = 0.199	876.6	864.9	852.8	840.6
20000 kPa, x1 = 0.301	897.5	885.7	873.6	861.4
20000 kPa, x1 = 0.3968	913	901.1	889.1	876.8
20000 kPa, x1 = 0.4976	926.2	914.3	902.4	890.1
20000 kPa, x1 = 0.5924	936.5	924.6	912.6	900.5
20000 kPa, x1 = 0.6956	945.8	934	922	910.1
20000 kPa, x1 = 0.7942	953.4	941.6	929.7	917.8
20000 kPa, x1 = 0.8929	959.7	948.1	936.3	924.4
20000 kPa, x1 = 0.9454	962.8	951.2	939.4	927.7
20000 kPa, x1 = 1	965.6	954	942.3	930.8
25000 kPa, x1 = 0.051	837	825.6	814	802.1
25000 kPa, x1 = 0.0992	853.1	841.6	829.9	818
25000 kPa, x1 = 0.199	879.9	868.3	856.5	844.6
25000 kPa, x1 = 0.301	900.6	889.1	877.2	865.3
25000 kPa, x1 = 0.3968	916.1	904.4	892.6	880.6
25000 kPa, x1 = 0.4976	929.2	917.6	905.9	893.7
25000 kPa, x1 = 0.5924	939.4	927.8	916	904.1
25000 kPa, x1 = 0.6956	948.7	937.1	925.3	913.7
25000 kPa, x1 = 0.7942	956.3	944.7	933	921.3
25000 kPa, x1 = 0.8929	962.6	951.1	939.6	927.9
25000 kPa, x1 = 0.9454	965.7	954.2	942.7	931.2
25000 kPa, x1 = 1	968.5	957.1	945.6	934.2
30000 kPa, x1 = 0.051	840.3	829.1	817.7	806.1
30000 kPa, x1 = 0.0992	856.3	845	833.6	821.9
30000 kPa, x1 = 0.199	883	871.7	860	848.3
30000 kPa, x1 = 0.301	903.7	892.3	880.6	869
30000 kPa, x1 = 0.3968	919.1	907.6	895.9	884.2
30000 kPa, x1 = 0.4976	932.2	920.7	909.2	897.3
30000 kPa, x1 = 0.5924	942.3	930.9	919.2	907.7
30000 kPa, x1 = 0.6956	951.6	940.2	928.5	917.2
30000 kPa, x1 = 0.7942	959.1	947.7	936.1	924.8
30000 kPa, x1 = 0.8929	965.5	954.1	942.7	931.4
30000 kPa, x1 = 0.9454	968.5	957.2	945.8	934.5
30000 kPa, x1 = 1	971.3	960	948.7	937.6
35000 kPa, x1 = 0.051	843.4	832.5	821.3	810
35000 kPa, x1 = 0.0992	859.4	848.3	837.1	825.7
35000 kPa, x1 = 0.199	886	874.8	863.5	852
35000 kPa, x1 = 0.301	906.6	895.4	883.9	872.5
35000 kPa, x1 = 0.3968	922	910.6	899.2	887.7
35000 kPa, x1 = 0.4976	935	923.7	912.4	900.8
35000 kPa, x1 = 0.5924	945.2	933.9	922.5	911.1
35000 kPa, x1 = 0.6956	954.4	943.2	931.7	920.6
35000 kPa, x1 = 0.7942	961.9	950.6	939.3	928.1
35000 kPa, x1 = 0.8929	968.2	957	945.8	934.7
35000 kPa, x1 = 0.9454	971.2	960.1	948.9	937.8
35000 kPa, x1 = 1	974	962.9	951.8	940.9
40000 kPa, x1 = 0.051	846.5	835.7	824.8	813.7
40000 kPa, x1 = 0.0992	862.5	851.5	840.5	829.3
40000 kPa, x1 = 0.199	889	877.9	866.8	855.5
40000 kPa, x1 = 0.301	909.5	898.4	887.1	876
40000 kPa, x1 = 0.3968	924.8	913.6	902.4	891.1
40000 kPa, x1 = 0.4976	937.8	926.7	915.5	904.2
40000 kPa, x1 = 0.5924	947.9	936.7	925.5	914.4
40000 kPa, x1 = 0.6956	957.1	946	934.7	923.8
40000 kPa, x1 = 0.7942	964.6	953.5	942.3	931.4
40000 kPa, x1 = 0.8929	970.9	959.8	948.8	937.8
40000 kPa, x1 = 0.9454	973.8	962.9	951.9	941
40000 kPa, x1 = 1	976.6	965.7	954.7	944
